Read-outs that look alike come from different tables or passages of the source.
How the values were obtained:
[1] = cited from earlier work
[2] = Stability test for ubidecarenone and vitamins/minerals under co-existence, mixed 1:1; format: physicochemical; details: for % residual amount of ubidecarenone: mixed 1:1, 40±2° C., 75±5 RH %; for effect of ingredient on stability of ubidecarenone: each ingredient singly mixed with ubidecarenone (Table 26)
[3] = Stability test for ubidecarenone and vitamins/minerals under co-existence at typical formulation ratio; format: physicochemical; details: ubidecarenone 50 mg, accelerated stability test
[4] = Stability test for ubidecarenone according to content of 90% ascorbic acid; format: physicochemical; details: text summary of Table 28
Source text: The results are as follows.

COC1=C(OC)C(=O)C(C/C=C(\C)CC/C=C(\C)CC/C=C(\C)CC/C=C(\C)CC/C=C(\C)CC/C=C(\C)CC/C=C(\C)CC/C=C(\C)CC/C=C(\C)CCC=C(C)C)=C(C)C1=O [Ubidecarenone]
solubility ([1]; in alcohol): insoluble | solubility ([1]; in ether): highly soluble | solubility ([1]; in water): insoluble | % residual amount of ubidecarenone ([2]; 2 weeks): 99.2% | % residual amount of ubidecarenone ([2]; initial (regarded as 100.0%)): 100% | residual amount of ubidecarenone, 2 weeks (%) ([3]; 2 weeks): 99.2% | residual amount of ubidecarenone, Initial (%) ([3]; initial): 100%

O=C1O[C@H]([C@@H](O)CO)C(O)=C1O [ascorbic acid]
residual amount of ubidecarenone as content of ascorbic acid in sample tablet increases [4]: remarkably reduced

CC(=O)Oc1c(C)c(C)c2c(c1C)CCC(C)(CCC[C@H](C)CCC[C@H](C)CCCC(C)C)O2 (stereo partly drawn) [alpha-tocopherol acetate]
effect of ingredient on stability of ubidecarenone [2]: excessively reduce the stability of ubidecarenone

CCCCCCCCCCCCCCCC(=O)OC/C=C(C)/C=C/C=C(C)/C=C/C1=C(C)CCCC1(C)C [retinol palmitate]
effect of ingredient on stability of ubidecarenone [2]: excessively reduce the stability of ubidecarenone

C[N+](C)(C)CCO.O=C([O-])C(O)C(O)C(=O)O (stereo not drawn) [choline bitartrate]
effect of ingredient on stability of ubidecarenone [2]: excessively reduce the stability of ubidecarenone

C=C1CC[C@H](O)C/C1=C/C=C1\CCC[C@]2(C)[C@@H]([C@H](C)CCCC(C)C)CC[C@@H]12 [dried cholecalciferol]
effect of ingredient on stability of ubidecarenone [2]: excessively reduce the stability of ubidecarenone
